Source: patent EP4745139A1, “COMPOUND FOR TREATING AND PREVENTING RESPIRATORY SYNCYTIAL VIRUS INFECTION DISEASES” (CSPC Zhongqi Pharmaceutical Technology (Shijiazhuang) Co., …, priority 2023, dated 2025)

What was measured:
[1] = test system: RSV strain A2; test: Antiviral detection test against RSV strain A2 based on ELISA method (Hep-2 cells); type: cell-based, Respiratory Syncytial Virus; details: RSV A2 virus strain, Hep-2 cells, ELISA OD450
Protocol: Test Example 1: Antiviral detection test of small molecules against RSV strain A2 based on ELISA method
• Source of cell line: Nanjing Kebai Biotechnology Co., Ltd. • Cell type: human laryngeal carcinoma epithelial cells Hep-2
• 96-well culture plate (Cat.No. 3610, Corning Costar); • Fetal bovine serum (Cat.No. 10099-141, GIBCO); • DMEM medium (Cat.No. 11995500BT, GIBCO); • Envision 2104 microplate reader.
• 1. Day 1: The Hep-2 cells were seeded into a 96-well plate at a density of 1×10^4 cells/well; • 2. Day 2: • A. Compound dilution: The compound in the first well was diluted to 9 µM, and 3-fold gradient dilution was performed, with a total of 10 gradients; • B. The Hep-2 cell plate prepared on Day 1 was taken out from the incubator, the supernatant was discarded, and 100 PFU/well/50 µL of the RSV A2 virus was added to each well. The plate was stood at 37°C in a 5% CO2 incubator for 2 hours, the supernatant was aspirated and discarded, and then 100 µL of the gradient-diluted compound or DMEM maintenance medium containing 2% FBS was added to each well; • 3. Day 5: • A. Add fixative: The gradient-diluted compound or medium was discarded from the wells, and 100 µL/well of fixative (4% paraformaldehyde) was added. The plate was stood at room temperature for 10 minutes, and then was washed once with 250 µL PBS; • B. 100 µL/well of a blocking solution was added, and the plate was incubated at 37°C in a 5% CO2 incubator for 30 minutes; • C. After incubation, the detection antibody (Anti RSV Fpro) was added at 0.3 µg/50 µL/well (6 µg/mL), and the plate was incubated at 37°C in a 5% CO2 incubator for 1 hour; • D. After incubation, the HRP secondary antibody was added (diluted 10,000-fold with 0.2% BSA), and the plate was incubated at 37°C in a 5% CO2 incubator for 1 hour; • E. After incubation, the wells were washed for 4 times with PBST, 250 µL/well, each washing was allowed to stand for 5 minutes, and the liquid in the wells was shaken off after completion of the washing; • F. 100 µL/well of a development solution was added, the plate was incubated at room temperature in the dark for 20 minutes, and 50 µL/well of a reaction termination solution was added. The plate was tapped gently to mix the solutions, and the absorbance at 450 nm was measured using the microplate reader. • 4. Data analysis • Inhibition rate of the compound against the virus = 100% - (SC - CC)/(VC - CC) × 100% • SC: OD450 value of the sample (cells + test compound + virus) • CC: OD450 value of the normal growing cell control (cells) • VC: OD450 value of the virus growth control (cells + virus)
The software Graphpad Prism 6 was used, and the calculation formula XY-analysis/Nonlinear regression (curve fit)/Dose response-Inhibition/log (inhibition) vs. response-Variable slope (four parameters) was adopted to fit the IC50 curve and calculate the IC50 value.

[2] = Pharmacokinetic experiment in mice after intragastric administration (plasma and lung tissue, LC/MS/MS); type: in vivo; details: ICR, mouse, intragastric administration at 20 mg/kg
Protocol: The compounds of the present invention for intragastric administration were dissolved in a suitable solvent to form a clear solution or suspension.
Administration mode and dosage: The compounds of the present invention were administered intragastrically at 10 mg/kg or 20 mg/kg.
Number of animals: 3 ICR mice per group for intragastric administration.
Sample collection: For the intragastric administration group, 100 µL of blood was collected (using pre-heparinized 100 µL Capillary Blood Collection Tubes) from the orbital vein of mice at 0.25 h, 0.5 h, 1 h, 2 h, 4 h, and 6 h after administration and placed in heparin sodium anticoagulant tubes. Mice plasma samples were obtained by centrifugation at 3000 g for 10 minutes within 2 hours. For the intragastric administration group, clean blood was collected at 6-hour time point and then lung tissues were collected.
Sample treatment: Plasma and lung tissue homogenates were subjected to protein precipitation with methanol at a certain ratio, and the supernatant was taken and diluted with 50% methanol-water at a certain ratio for sample loading.
Sample detection: The drug concentration in plasma was detected by the LC/MS/MS method, and the drug-time curve was plotted. Pharmacokinetic parameters (such as T1/2(h)/AUC0-t) were calculated by non-compartmental model statistical moments to describe the pharmacokinetic behavior of the compounds in mice after administration.
Data processing: Pharmacokinetic parameters were calculated by WinNonlin.

[3] = test system: RSV; test: In vivo pharmacodynamic assay: mouse RSV infection model, lung viral load by plaque assay; parameters: species or system BALB/c mice; details: QD, lung tissue, Day 5
Protocol: The compound of the present invention was dissolved in a suitable solvent to form a clear solution or suspension for intragastric administration. • Animals: BALB/c mice, 6-weeks old, female. • Establishment of in vivo RSV infection model: Mice were inoculated intranasally with the virus on Day 0, with an inoculation dose of 3.5 × 10^6 p.f.u. per mouse. • Grouping of animals: Animals were divided into a vehicle control group and an administration group, with 5 animals in each group.
Administration mode and dosage: The compound of the present invention was administered intragastrically at 100 mg/kg or 50 mg/kg, or the vehicle used for the compound of the present invention was administered intragastrically. The administration volume was 10 mL/kg.
Experimental procedure: Mice were inoculated intranasally with the virus on Day 0 at an inoculation dose of 3.5 × 10^6 p.f.u. per mouse. Mice were continuously treated with the compound of the present invention from Day 0 to Day 4 for 5 days at a dose of 50 mg/kg, once daily, via intragastric administration, with an administration volume of 10 mL/kg; the first administration was conducted 1 hour before virus inoculation. Alternatively, mice were treated once with the compound of the present invention on Day 0 at a dose of 100 mg/kg, via intragastric administration, with an administration volume of 10 mL/kg; the first administration was conducted 1 hour before virus inoculation. On Day 5, mice were euthanized, and lung tissue samples were collected. Animals were observed daily from Day 0 to Day 5, and the body weight, health status, and survival status were recorded.
Sample processing: After lungs were collected, they were quickly frozen in the HBSS* solution at a 10-fold weight-to-volume ratio (w:v (g:mL) = 1:10), and stored in a -80°C refrigerator for plaque assay to detect viral load.
Sample detection: Viral load in lung tissues was detected by plaque assay. […]

[4] = molecular target: human potassium ion channel (hERG) (Homo sapiens, UniProt Q12809)
human potassium ion channel (hERG), sequence (Q12809 whole entry): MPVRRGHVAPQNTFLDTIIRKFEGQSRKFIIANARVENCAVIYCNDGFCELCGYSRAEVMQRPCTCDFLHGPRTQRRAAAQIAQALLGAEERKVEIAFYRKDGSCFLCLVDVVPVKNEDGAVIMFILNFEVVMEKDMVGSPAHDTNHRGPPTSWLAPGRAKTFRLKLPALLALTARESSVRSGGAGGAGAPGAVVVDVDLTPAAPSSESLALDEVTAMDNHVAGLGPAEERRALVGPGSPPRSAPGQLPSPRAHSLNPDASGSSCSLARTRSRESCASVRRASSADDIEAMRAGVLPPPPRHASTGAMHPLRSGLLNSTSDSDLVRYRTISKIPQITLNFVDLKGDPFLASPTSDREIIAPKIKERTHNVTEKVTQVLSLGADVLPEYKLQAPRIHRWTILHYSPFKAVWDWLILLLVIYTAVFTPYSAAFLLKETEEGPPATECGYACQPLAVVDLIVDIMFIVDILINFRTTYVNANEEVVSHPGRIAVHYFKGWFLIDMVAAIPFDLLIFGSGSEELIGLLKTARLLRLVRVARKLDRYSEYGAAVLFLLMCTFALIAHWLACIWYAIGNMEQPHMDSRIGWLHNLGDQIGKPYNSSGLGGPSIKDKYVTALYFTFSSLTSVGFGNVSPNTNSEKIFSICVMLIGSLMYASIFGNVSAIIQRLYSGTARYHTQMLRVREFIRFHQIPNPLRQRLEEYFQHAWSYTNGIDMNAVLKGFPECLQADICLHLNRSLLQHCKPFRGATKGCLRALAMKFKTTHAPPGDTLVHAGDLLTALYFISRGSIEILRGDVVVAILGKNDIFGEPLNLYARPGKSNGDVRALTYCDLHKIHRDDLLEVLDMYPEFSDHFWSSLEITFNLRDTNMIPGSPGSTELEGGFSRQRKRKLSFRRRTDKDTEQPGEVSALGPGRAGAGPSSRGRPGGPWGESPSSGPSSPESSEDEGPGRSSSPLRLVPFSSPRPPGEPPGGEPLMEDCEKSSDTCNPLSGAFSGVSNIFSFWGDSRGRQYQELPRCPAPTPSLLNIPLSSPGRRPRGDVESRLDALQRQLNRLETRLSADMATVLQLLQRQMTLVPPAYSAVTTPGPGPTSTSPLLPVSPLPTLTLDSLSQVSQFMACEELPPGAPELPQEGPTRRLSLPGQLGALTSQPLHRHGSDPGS
Protocol: Experimental equipment: Electrophysiological detection was performed using the fully automated patch clamp QPatch 48 X (Sophion) device.
Experimental procedure: The prepared cells were placed in the centrifuge chambers of the QPatch workbench, the cells were washed by the centrifugation/suspension method for multiple times to replace the cell culture medium with an extracellular solution. One MTP-96 plate was taken out and placed at the MTP source position. The QPlate chip was taken out and then the QPlate was placed at the QPlate source position. The robotic arm scanned the MTP-96 plate and the barcodes of the QPlate chip, and grabbed them to the measurement station. Intracellular and extracellular solutions were aspirated from the liquid pool and added to the intracellular solution pool and the cell and test substance pool of the QPlate chip, respectively. At the measurement station, all measurement sites on the QPlate underwent initial quality control. […] The current detected in each cell in the extracellular solution without the compound was used as its own control group, and the detection was independently repeated on two cells. […]
Data processing: The IC50 values were calculated using GraphPad Prism software.

| IC50 ([1]; human respiratory syncytial virus) | concentration at 6 h ([2]; lung, oral, read-out: Lung tissue drug concentration at 6 h) | half-life ([2]; plasma, po) | IC50 [1] | Compound | log (RSV Viral Load) Mean ([3]; 50 mpk, 5 days administration, value is the lower limit of detection for viral load) | log (RSV Viral Load) Mean ([3]; 100 mpk, administration once) | IC50 of the Compound of the present invention /AK0529 IC50 [4] |
| --- | --- | --- | --- | --- | --- | --- | --- |
| < 0.01 µM | 22700 ng/g | 6.91 h |  | Cc1ccc2nc(N3CCS(=O)(=NC4CC4)c4ccccc4C3)nc(N3CC[C@H](N)C3)c2c1 (stereo partly shown) [Example 4-11] | 2.30° | 2.48 |  |
|  |  |  | < 0.01 µM | Cc1ccc2nc(N3CCS(=O)(=NCC4CCO4)c4ccccc4C3)nc(N3CC[C@H](N)C3)c2c1 (stereo partly shown) [Example 4-61] |  |  | > 1 |
